Source: PMC8634879, “Design, Synthesis, and Biological Evaluation of Pyrano[2,3-c]-pyrazole–Based RalA Inhibitors Against Hepatocellular Carcinoma” (Frontiers in Chemistry, 2021)
Like-named read-outs stand apart in the source and are kept apart here.

Tests used:
[1] = target: T1, RalA (Homo sapiens, UniProt P11233); assay: ELISA-based RalA activity assay (RalBP1-coated plates, lysates of compound-treated cells); format: biochemical; conditions: for remaining activity at 1 µM: 1 μM compound, % control = activity remained; for IC50: enzymatic inhibition, average of at least three independent replicates ± SD, read-out: Kinase activities (IC50, μM) RalA
T1 construct: expressed in transfected cells; host or cells: HepG2 (from b6; the methods paragraph names no cell line)
T1 sequence (P11233 1-203 limits assumed): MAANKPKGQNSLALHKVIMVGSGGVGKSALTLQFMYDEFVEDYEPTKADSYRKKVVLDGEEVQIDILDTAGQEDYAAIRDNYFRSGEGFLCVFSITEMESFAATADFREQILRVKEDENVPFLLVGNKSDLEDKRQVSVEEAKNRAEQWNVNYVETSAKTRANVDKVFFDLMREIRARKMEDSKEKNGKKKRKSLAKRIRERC
Procedure: (§1) The in vitro RalA/B bioactivity assays were performed following methods outlined in previous reports. ([Yan et al., 2016]; [Zhang et al., 2018]; [Walsh et al., 2019]; [Bum-Erdene et al., 2020]). In brief, the lysates of the test compound or vehicle-treated cells were cleared using cold centrifugation, and supernatants were collected. An RalBP1 solution was added to 96-well plates and incubated for 1–2 h, and then the plates were washed thrice using ELISA buffer. Next, cellular lysates were added, and samples were incubated overnight at 4°C. Then, ice-cold mouse anti-FLAG antibody was added, and samples were incubated for one more hour. After subsequent washing with ELISA buffer thrice, the HRP-conjugated anti-mouse antibody was added, and samples were incubated for another hour. Then, the HRP substrate was added. Antigen–antibody reactions were quenched by the addition of sulfuric acid (2 mol/L). Remaining RalA/B was detected by the OD450 values which were collected by using a plate reader. Cell proliferation assays, colony formation assays, apoptosis assays, GST pulldown, and Western blotting were used following methods outlined in our previous reports. ([Zhou et al., 2015]; [Zhang et al., 2016]; [Yang et al., 2017]; [He et al., 2019]). Autophagy levels and protein immunoblotting were used following the methods mentioned in our previous reports ([Pan et al., 2018]; [Wang et al., 2018]; [Hao et al., 2019]; [Wang et al., 2019]; [Peng et al., 2020]). Detailed experimental procedures are described in supporting materials.

[2] = target: T2, RalB (Homo sapiens, UniProt P11234); assay: ELISA-based RalB activity assay (RalBP1-coated plates, lysates of compound-treated cells); format: biochemical; conditions: for remaining activity at 1 µM: 1 μM compound, % control = active (RalBP1-bound) RalB remaining; for IC50: enzymatic inhibition, average of at least three independent replicates ± SD, read-out: Kinase activities (IC50, μM) RalB
T2 construct: expressed in transfected cells; host or cells: HepG2 (from b6; the methods paragraph names no cell line)
T2 sequence (P11234 1-203 limits assumed): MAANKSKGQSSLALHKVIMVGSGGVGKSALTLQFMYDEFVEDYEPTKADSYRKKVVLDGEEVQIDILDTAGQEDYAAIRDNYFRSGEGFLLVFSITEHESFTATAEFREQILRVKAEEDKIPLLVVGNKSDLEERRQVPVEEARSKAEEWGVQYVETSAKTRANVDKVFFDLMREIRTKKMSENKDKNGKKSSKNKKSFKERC
Procedure: as §1

[3] = system: HepG2 cells; assay: Cell proliferation assay (MTT), HepG2; format: cell-based; conditions: Homo sapiens
Procedure: (§2) The antibodies recognizing LC3, p62/SQSTM1, RalA, RalB, and GAPDH were purchased from Proteintech (Wuhan, China). HCC cell lines, including HepG2, Hep3B, Huh-7, and SMMC-7721, were obtained from the Chinese Center for Type Culture Collection (Wuhan, China) and cultured in DMEM (Dulbecco’s modified Eagle’s medium) with 10% FBS (fetal bovine serum) and streptomycin. Cytotoxicity assays were performed by using the MTT method as previously described.
as §1

[4] = system: Huh-7 cells; assay: Cell proliferation assay (MTT), Huh-7; format: cell-based; conditions: Homo sapiens
Procedure: as §2, §1

[5] = system: Hep3B cells; assay: Cell proliferation assay (MTT), Hep3B; format: cell-based; conditions: Homo sapiens, average of at least three independent replicates ± SD, read-out: Anti-proliferative activities (IC50, μM) Hep3B
Procedure: as §2, §1

[6] = system: SMMC-7721 cells; assay: Cell proliferation assay (MTT), SMMC-7721; format: cell-based; conditions: Homo sapiens, average of at least three independent replicates ± SD, read-out: Anti-proliferative activities (IC50, μM) SMMC-7721
Procedure: as §2, §1

[7] = HepG2, Table 1, cell proliferation inhibition, read-out: IC50 (μM) HepG2
[8] = HepG2, Table 2, average of at least three independent replicates ± SD, read-out: Anti-proliferative activities (IC50, μM) HepG2
[9] = Table 1, cell proliferation inhibition, read-out: IC50 (μM) Huh7
[10] = Table 2, average of at least three independent replicates ± SD, read-out: Anti-proliferative activities (IC50, μM) Huh-7

| SMILES | remaining activity at 1 µM [1] [%] | IC50 [1] [µM] | remaining activity at 1 µM [2] [%] | IC50 [2] [µM] | IC50 [3, 7] [µM] | IC50 [3, 8] [µM] | IC50 [4, 9] [µM] | IC50 [4, 10] [µM] | IC50 [5] [µM] | IC50 [6] [µM] | melting point [°C] |
| --- | --- | --- | --- | --- | --- | --- | --- | --- | --- | --- | --- |
| Cc1ccc(S(=O)(=O)NC2=C(C#N)C(c3ccsc3)c3c(C)nn(-c4ccccc4)c3O2)cc1 (stereo not drawn) [4m, N-(5-cyano-3-methyl-1-phenyl-4-(thiophen-3-yl)-1,4-dihydropyrano[2,3-c]-pyrazol-6-yl)-4-methylbenzenesulfonamide] | 45 | 1.7 ± 0.22 | 58 | 3.86 ± 0.39 | 7.2 ± 0.65 | 9.15 | > 10 | > 10 | 9.84 ± 1.37 | 9.6 ± 1.05 | 67.8 to 68.4 |
| Cc1nn(-c2ccccc2)c2c1C(c1ccc(C(F)(F)F)cc1)C(C#N)=C(NS(=O)(=O)c1ccc(F)cc1F)O2 (stereo not drawn) [4r, N-(5-cyano-3-methyl-1-phenyl-4-(4-(trifluoromethyl)phenyl)-1,4-dihydropyrano[2,3-c]-pyrazol-6-yl)-2,4-difluorobenzenesulfonamide] | 30 | 0.66 ± 0.08 | 43 | 1.49 ± 0.22 | 7.56 ± 0.92 | 7.56 ± 0.92 | 7.39 ± 0.85 | 7.39 ± 0.85 | 8.3 ± 0.66 | > 10 | 65.8 to 66.5 |
| Cc1ccc(S(=O)(=O)NC2=C(C#N)C(c3ccncc3)c3c(C)nn(-c4ccccc4)c3O2)cc1 (stereo not drawn) [4l, N-(5-cyano-3-methyl-1-phenyl-4-(pyridin-4-yl)-1,4-dihydropyrano[2,3-c]-pyrazol-6-yl)-4-methylbenzenesulfonamide] | 40 | 1.24 ± 0.15 | 52 | 2.64 ± 0.3 | 9.2 ± 0.89 | 6.01 | 9.15 ± 1.04 | 9.15 ± 1.04 | 4.39 ± 0.57 | 5.94 ± 0.77 | 100.5 to 101.1 |
| Cc1ccc(S(=O)(=O)NC2=C(C#N)C(c3ccc(C(F)(F)F)cc3)c3c(C)nn(-c4ccccc4)c3O2)cc1 (stereo not drawn) [4n, N-(5-cyano-3-methyl-1-phenyl-4-(4-(trifluoromethyl)phenyl)-1,4-dihydropyrano[2,3-c]-pyrazol-6-yl)-4-methylbenzenesulfonamide] | 46 | 1.81 ± 0.19 | 59 | 4.11 ± 0.45 | 8.46 ± 0.92 | 8.46 ± 0.92 | 9.58 ± 0.92 | 9.58 ± 0.92 | > 10 | > 10 | 109.3 to 110.2 |
| Cc1nn(-c2ccccc2)c2c1C(c1ccc(C(F)(F)F)cc1)C(C#N)=C(NS(=O)(=O)c1ccc(C(F)(F)F)cc1)O2 (stereo not drawn) [4q, N-(5-cyano-3-methyl-1-phenyl-4-(4-(trifluoromethyl)phenyl)-1,4-dihydropyrano[2,3-c]-pyrazol-6-yl)-4-(trifluoromethyl)-benzenesulfonamide] | 37 | 1.02 ± 0.09 | 39 | 1.16 ± 0.19 | 8.65 ± 0.97 | 8.65 ± 0.97 | 8.42 ± 0.94 | 8.42 ± 0.94 | 7.76 ± 1 | > 10 | 153.7 to 154.1 |
| Cc1nn(-c2ccccc2)c2c1C(c1ccc(C(F)(F)F)cc1)C(C#N)=C(NS(=O)(=O)c1cccs1)O2 (stereo not drawn) [4o, N-(5-cyano-3-methyl-1-phenyl-4-(4-(trifluoromethyl)phenyl)-1,4-dihydropyrano[2,3-c]-pyrazol-6-yl)thiophene-2-sulfonamide] | 36 | 0.96 ± 0.12 | 47 | 1.93 ± 0.26 | 5.32 ± 0.61 | 5.32 ± 0.61 | > 10 | > 10 | 7.69 ± 0.84 | > 10 | 55.9 to 56.7 |
| Cc1ccc(S(=O)(=O)NC2=C(C#N)C(c3ccccc3)c3c(C)nn(-c4ccc(F)cc4)c3O2)cc1 (stereo not drawn) [4ag, N-(5-cyano-1-(4-fluorophenyl)-3-methyl-4-phenyl-1,4-dihydropyrano[2,3-c]-pyrazol-6-yl)-4-methylbenzenesulfonamide] | 66 | – | 75 | – | > 10 | – | > 10 | – | – | – | 138.6 to 139.3 |
| Cc1ccc(S(=O)(=O)NC2=C(C#N)C(c3cccnc3)c3c(C)nn(-c4ccccc4)c3O2)cc1 (stereo not drawn) [4k, N-(5-cyano-3-methyl-1-phenyl-4-(pyridin-3-yl)-1,4-dihydropyrano[2,3-c]-pyrazol-6-yl)-4-methylbenzenesulfonamide] | 32 | 0.75 ± 0.09 | 38 | 1.09 ± 0.13 | 5.63 ± 0.58 | 5.63 ± 0.58 | 6.01 ± 0.57 | 6.01 ± 0.57 | > 10 | > 10 | – |
